Like-named read-outs stand apart in the source and are kept apart here. Each block holds one molecule with its values, some of them ahead of it.
How the values were obtained:
[1] = target: T1, CYP2D6 (Homo sapiens, UniProt P10635); experiment: CYP2D6 inhibition
[2] = tested on: Caco-2 cells; conditions: cited from earlier work
[3] = cited from earlier work; for Cmax Obs: ref Gustafsson et al., 1983 16
[4] = cited from earlier work
[5] = In vitro flags for victim and perpetrator properties conferring DDI liability; type: in vitro ADME, human; conditions: in vitro flag, mainly based on in vitro determinations
[6] = ref Charman et al., 2020 1; cited from earlier work
[7] = PBPK input; ref atovaquone oral bioavailability Lavelle et al., 1994 17; chloroquine Walker et al., 1987 29; doxycycline Fabre et al., 1966 45, Saivin et al., 1988 46; proguanil Ke et al., 2014 64; pyronaridine mass balance study Morris et al., 2015 72; cited from earlier work
[8] = In vivo clearance (CL IV, CL PO, CL renal, fe); conditions: chloroquine model
[9] = measured (0.4 mg/mL protein where stated); ref Charman et al., 2020 1; cited from earlier work
[10] = target: T2, CYP2C8 (Homo sapiens, UniProt P10632); experiment: Metabolism by CYP2C8 (CLint, fm); conditions: for fmCYP2C8: fraction metabolised used in the PBPK model
T2 sequence (P10632 1-490): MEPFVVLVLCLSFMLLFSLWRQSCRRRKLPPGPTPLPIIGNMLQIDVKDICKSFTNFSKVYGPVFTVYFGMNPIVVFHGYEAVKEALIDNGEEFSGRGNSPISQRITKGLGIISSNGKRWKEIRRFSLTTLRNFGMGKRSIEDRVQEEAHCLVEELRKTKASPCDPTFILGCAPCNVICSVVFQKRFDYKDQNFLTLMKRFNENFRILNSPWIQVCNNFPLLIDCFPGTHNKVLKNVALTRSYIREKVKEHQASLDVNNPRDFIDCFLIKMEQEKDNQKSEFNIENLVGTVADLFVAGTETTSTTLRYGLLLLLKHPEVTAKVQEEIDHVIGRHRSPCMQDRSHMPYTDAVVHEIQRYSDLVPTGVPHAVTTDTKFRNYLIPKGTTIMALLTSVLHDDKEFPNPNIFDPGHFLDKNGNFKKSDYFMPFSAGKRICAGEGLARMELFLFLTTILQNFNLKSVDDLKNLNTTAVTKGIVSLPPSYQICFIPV
Description: (§1) In nearly all cases the fraction of systemic elimination metabolised by a given enzyme (fm) determined in vitro was unavailable in the literature.

[11] = tested on: UGT2B7; experiment: Metabolism by UGT2B7; type: in vitro ADME, human; conditions: equal contribution assumed
Description: as §1

[12] = Fraction unbound in human liver microsomes (fumic); conditions: extrapolated from value measured at 0.4 mg/mL to 0.1 mg/mL, method of Austin et al., 2002
[13] = PBPK absorption inputs (fa, ka, tlag, Qgut, Fg); parameters: species or system human; conditions: Relative fa (in vivo fasted AUC / fed AUC; Reuter et al., 2015 for DHA, Crevoisier et al., 1997 for mefloquine)
Description: Initial models were built based on available physicochemical and in vitro data to give a ‘bottom-up’ prediction. Areas of uncertainty were highlighted, and the potential impact of uncertainty associated with such parameters was investigated using sensitivity analysis. Available clinical PK data were then used to evaluate and, if required, refine the initial ‘bottom-up’ model. Care was taken to split data into training and test sets wherever possible. The model verification strategy differed across compounds based on availability of different types of clinical data. […] Clinical studies used for drug model development and verification are reported in Table S2 (PK) and Table S3 (DDIs).

[14] = ref amodiaquine, DEAQ Hietala, 2009 2; atovaquone Nixon et al., 2013 13; DHA Batty et al., 2004 41; mefloquine, tafenoquine (also AGP) Zsila et al., 2008 54; cited from earlier work
[15] = PBPK input; ref Charman et al., 2020 1; cited from earlier work
[16] = tested on: CYP1A2; conditions: read-out: CYP1A2 Ki; ref Charman et al., 2020 1; cited from earlier work
[17] = tested on: UGT1A9; experiment: Metabolism by UGT1A9; type: in vitro ADME, human; conditions: equal contribution assumed
Description: as §1

[18] = target: CYP3A4 (Homo sapiens, UniProt P08684)
Description: as §1

[19] = target: T1, CYP2D6; experiment: Metabolism by CYP2D6 (CLint, fm)
Description: as §1

[20] = in vitro; conditions: human, plasma
[21] = Blood to plasma ratio (B:P); conditions: PBPK input; unpublished (in-house) data
[22] = tested on: CYP1A2; experiment: Metabolism by CYP1A2 (CLint, fm); type: in vitro ADME, human
Description: as §1

[23] = tested on: CYP2B6; experiment: Metabolism by CYP2B6 (CLint, Vmax, Km, fm); type: in vitro ADME, human
Description: as §1

[24] = PBPK input, ref amodiaquine, DEAQ Winstanley et al., 1987 9, atovaquone Rolan et al., 1997 14, azithromycin Lalak et al., 1993 23, carboxyprimaquine Mihaly et al., 1985 26, chloroquine Walker et al., 1987 29, DHA EMA Website, 44, doxycycline Raghuram et al., 1982 48, Nguyen et al., 1989 49, mefloquine Schwartz et al., 1982 57, primaquine White, 1985 62, proguanil Jeppesen et al., 1997 34, pyrimeth
[25] = clinically observed oral (in vivo) clearance, pyronaridine: blood, ref amodiaquine Winstanley et al., 1987 9, DEAQ Akande et al., 2015 8, Scarsi et al., 2014 35, Tarning et al., 2012 36, Orrell et al., 2008 37, DHA Na-Bangchang et al., 2004 42, lumefantrine Lefevre et al., 2002 52, Hoglund et al., 2015 53, mefloquine Charles et al., 2007 56, proguanil Jeppesen et al., 1997 34, pyronaridine Jittama
[26] = fraction metabolised used in the PBPK model
[27] = retrograde calculations from CL PO, blood

T1 sequence (P10635 whole entry): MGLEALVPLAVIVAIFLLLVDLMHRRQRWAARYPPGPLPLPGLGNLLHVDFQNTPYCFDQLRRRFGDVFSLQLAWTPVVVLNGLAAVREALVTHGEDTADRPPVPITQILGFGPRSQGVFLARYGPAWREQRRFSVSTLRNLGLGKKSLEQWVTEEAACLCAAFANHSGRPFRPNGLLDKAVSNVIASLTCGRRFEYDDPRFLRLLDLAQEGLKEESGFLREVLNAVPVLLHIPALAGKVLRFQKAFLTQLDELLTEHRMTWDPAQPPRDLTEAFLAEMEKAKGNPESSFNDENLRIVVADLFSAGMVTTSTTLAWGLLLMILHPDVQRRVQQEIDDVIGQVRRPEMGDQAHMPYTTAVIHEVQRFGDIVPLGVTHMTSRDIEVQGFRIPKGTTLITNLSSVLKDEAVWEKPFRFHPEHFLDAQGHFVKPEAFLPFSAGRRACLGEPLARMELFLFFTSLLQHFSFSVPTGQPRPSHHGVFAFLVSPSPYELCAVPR
Chain of CYP3A4 (P08684 whole entry): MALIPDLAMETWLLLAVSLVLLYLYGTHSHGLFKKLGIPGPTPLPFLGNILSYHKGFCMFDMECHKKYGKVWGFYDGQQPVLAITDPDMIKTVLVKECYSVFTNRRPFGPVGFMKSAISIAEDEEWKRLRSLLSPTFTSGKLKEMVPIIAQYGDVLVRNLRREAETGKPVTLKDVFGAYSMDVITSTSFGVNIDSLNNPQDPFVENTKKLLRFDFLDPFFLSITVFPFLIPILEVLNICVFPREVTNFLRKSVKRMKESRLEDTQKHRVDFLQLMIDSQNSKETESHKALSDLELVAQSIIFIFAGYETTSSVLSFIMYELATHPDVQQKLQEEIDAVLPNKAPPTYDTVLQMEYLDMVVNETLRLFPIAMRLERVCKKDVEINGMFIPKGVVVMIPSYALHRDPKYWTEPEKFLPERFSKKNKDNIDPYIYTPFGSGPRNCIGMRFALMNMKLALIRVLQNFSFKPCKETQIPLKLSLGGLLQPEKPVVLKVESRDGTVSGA

Compound: CCN(CC)Cc1cc(Nc2ccnc3cc(Cl)ccc23)ccc1O [Amodiaquine, amodiaquine]
- Ki [1]: 0.45 µM
- Caco-2 (Papp A-B) ([2]; Caco-2): 9.8 10-6 cm/s
- AUC Obs ([3]; in vivo, 540 mg): 331 ng·h/mL
- CL PO ([4]; in vivo, po): 2500 L/h
- CL renal ([4]; in vivo): 3.5 L/h
- Risk as a victim [5]: Substrate of CYP2C8

- renal clearance share of elimination [8]: 57%
- Risk as a perpetrator [5]: CYP2D6 inhibitor
- fmCYP2C8 [10]: 11%
- CLint CYP2C8 ([10]; human): 0.27 µL/min/pmol
Compound: CCN(CC)CCCC(C)Nc1ccnc2cc(Cl)ccc12 (stereo not drawn) [Chloroquine, chloroquine]
- B:P [6]: 3.5
- fa [7]: 1
- fumic [9]: 0.5
- Cmax Obs ([3]; 300 mg infusion (over 23.5 mins) SD): 837 ng/mL
- Cmax Obs ([3]; 300 mg soln. SD): 73.0 ng/mL
- Cmax Obs ([3]; 300 mg tablet SD): 76.0 ng/mL
- CL renal [4, 24]: 24.78 L/h
- CL IV ([4]; clinically observed, ref atovaquone Lavelle et al., 1994 17, chloroquine Walker et al., 1987 29, Gustafsson et al., 1983 30, doxycycline Raghuram et al., 1982 48, Nguyen et al., 1989 49, primaquine Mihaly et al., 1985 26, quinine White et al., 1983 77, Paintaud et al., 1993 78): 39.84 L/h
- Risk as a victim [5]: Substrate of CYP2C8 and CYP3A4; renally cleared

- fmUGT2B7 [11]: 50%
- fumic [12]: 0.964
- fa ([13]; listed as DHA (administered as DHA)): 0.71
- fa ([13]; listed as DHA (administered as artesunate)): 1
- Risk as a perpetrator [5]: CYP1A2 inhibitor
- Risk as a victim [5]: Substrate of UGT1A9 and UGT2B7
- fmUGT1A9 [17]: 50%
Compound: C[C@H]1[C@@H](O)O[C@@H]2O[C@@]3(C)CC[C@H]4[C@H](C)CC[C@@H]1[C@@]24OO3 [DHA, dihydroartemisinin]
- Caco-2 (Papp A-B) ([2]; calibrated against propranolol, plasma as medium for atovaquone and piperaquine, ref Charman et al., 2020 1): 49 10-6 cm/s
- Main binding protein [14]: AGP
- AUC Obs ([3]; 4 mg/kg SD, 0-inf, ref Na-Bangchang et al., 2004 20): 907 ng·h/mL
- AUC Obs ([3]; 120 mg SD, 0-inf, ref Chinh et al., 2009 23): 370 ng·h/mL
- AUC Obs ([3]; 180 mg SD (artesunate), 0-inf, ref Jittamala et al., 2015 15): 1400 ng·h/mL
- AUC Obs ([3]; 240 mg SD, 0-inf, ref Le et al., 1999 22): 1980 ng·h/mL
- AUC Obs ([3]; 300 mg SD, 0-inf, ref Na-Bangchang et al., 1997 21): 2018 ng·h/mL
- Log P [15]: 2.3
- CL PO [4, 25]: 273.2 L/h
- Ki [16]: 4.38 µM

Compound: COc1ccc2nc3cc(Cl)ccc3c(Nc3cc(CN4CCCC4)c(O)c(CN4CCCC4)c3)c2n1 [Pyronaridine, pyronaridine]
- fmCYP3A4 [18]: 61.1%
- CLint CYP3A4 ([18]; microsomes): 0.42 µL/min/pmol
- fa [7]: 0.74
- fmCYP2D6 [19, 26]: 20.6%
- CLint CYP2D6 ([19]; retrograde calculations): 1.33 µL/min/pmol
- CL renal [4, 24]: 0.16 L/h
- CL PO [4, 25]: 22.1 L/h
- fe (fraction excreted unchanged in urine) ([4]; ref atovaquone Rolan et al., 1997 14, mefloquine Schwartz et al., 1982 57, primaquine White, 1985 62, proguanil (extensive metabolisers) Jeppesen et al., 1997 34, pyronaridine Wattanavijitkul, 2010 74, sulfadoxine assumed with Edstein, 1987 83): 1%
- fraction unbound [20]: 0.058
- B:P [21]: 1.5
- Risk as a perpetrator [5]: CYP2D6 and P‐gp inhibitor
- Risk as a victim [5]: Substrate of CYP1A2, CYP2B6, CYP2C8, CYP2D6 and CYP3A4
- fmCYP1A2 [22, 26]: 4.7%
- CLint CYP1A2 [22, 27]: 0.09 µL/min/pmol
- CLint CYP2C8 ([10]; derived from in vivo clearance by retrograde calculations): 0.19 µL/min/pmol
- fmCYP2C8 [10]: 4.8%
- fmCYP2B6 ([23]; fraction metabolised used in the PBPK model (artemether: without induction)): 7.7%
- CLint CYP2B6 [23, 27]: 0.47 µL/min/pmol

Source: article PMC10508484, “Development and application of a PBPK modeling strategy to support antimalarial drug development” (CPT: Pharmacometrics & Systems Pharmacology, 2023)
